Consider three compounds from patent US6852735B1, “Siastatin B derivatives having a glycosidase inhibitory activity and processes for producing the same” (Zaidan Hojin Biseibutsu Kagaku Kenkyu Kai, priority 1998, dated 2005).

A value given as a limit tells only on which side of the number the result lay.

Holding throughout (assay type): biochemical
The test system of assay [1] is β-N-acetylglucosaminidase (from bovine epididymis). The assay can be described thus: β-N-acetylglucosaminidase inhibition (Test Example 2). As to conditions: for inhibition of N-acetylglucosaminidase, in words: summary of Table 1; for 50% inhibiory concentration (IC50) Enzyme B: β-N-acetylglucosaminidase from bovine epididymis, substrate p-nitrophenyl-N-acetyl-β-D-glucosaminide. On the procedure: (§1) Thus, 0.5 mL of 0.025M citrate-phosphate buffer (pH 4.0), 0.1 mL of the same buffer containing 10 mM p-nitro-phenyl-N-acetyl-α-D-galactosaminide dissolved therein, and 0.1 mL of either water or an aqueous solution containing as the test compound any one of the compounds of the formulae (I), (V) and (X) according to this invention were mixed with each other and pre-incubated in a 96-wells titer plate at 37° C. for 10 minutes. After the completion of the pre-incubation, to the pre-incubated mixture was added 0.01 mL of 0.025 M citrate-phosphate buffer containing α-N-acetyl-galactosaminidase originated from chicken liver (a product of Sigma Company) which was dissolved in said buffer as a glycosidase to be tested. Thereafter, the enzymatic reaction was conducted at 37° C. for 30 minutes.
(§2) After the enzymatic reaction, to the reaction solution was added 1.0 mL of 0.3M glycine—sodium hydroxide buffer (pH 10.5), in order to terminate the enzymatic reaction. Thereafter, the absorbance [designated as value (a)] of light at 405 nm of the resulting reaction solution was measured. Concurrently, measurement was made of the absorbance [designated as value (b)] at 405 nm of the reaction solution as obtained in the control test where the enzymatic reaction was conducted without addition of the test compound. Further, measurements were made of the absorbance [designated as values (a′)] and the absorbance [[designated as values (b′)] at 405 nm of the solutions as obtained in the blank test and the control test, respectively, where the enzymatic reaction was not conducted in the assay test. The rate of inhibition to […] was calculated by the equation: [1-(a-a′)/(b-b′)]×100.
(§3) The test results obtained are summarized as IC50 value in Table 1 below.
This Test Example is a test example for determining the N-acetylglucosaminidase-inhibitory activity of the compound of the formula (I), (V) or (X) according to this invention.
The evaluation of the N-acetylglucosaminidase-inhibitory activity was conducted according to a modification of the method described in the “Methods in Enzymology”, 28, p.772 (1972).
Namely, the test was conducted in the same manner as the test for the N-acetylgalactosamnidase-inhibitory activity as described above, but with using […] (a product of Sigma Company) originated from bovine epididymis, as the glycosidase enzyme to be tested, and with using p-nitrophenyl-N-acetyl-β-D-glucosaminide as the substrate. Furthermore, absorbances of light at 405 nm were measured in the same manner as described in […]. IC50 value of the test compound capable of giving the 50% inhibition to β-N-acetyl-glucosaminidase was calculated.

The test system of assay [2] is α-D-galactosidase (from Aspergillus niger). The assay can be described thus: α-galactosidase inhibition (Test Example 3). As to conditions: for 50% inhibiory concentration (IC50) Enzyme C: α-D-galactosidase from Aspergillus niger, substrate p-nitrophenyl-α-D-galactoside. The procedure: as §1, §2, §3
This Test Example is a test example for determining the α-galactosidase or β-galactosidase-inhibitory activity of the compound of the formula (I), (V) or (X) according to this invention.
The evaluation of the α-galactosidase or β-galactosidase-inhibitory activity was conducted according to a modification of the method described in the “Journal of Biological Chemistry”, 240, p.2468 (1965).
Namely, the test was conducted in the same manner as the test for the enzyme-inhibitory activity described in Test Example 1, but with using α-galactosidase or β-galactosidase (products of by Sigma Company) originated from Aspergillus niger, as the glycosidase enzyme, and with using p-nitrophenyl-α-D-galactoside and p-nitrophenyl-β-D-galactoside as the substrate. Furthermore, absorbances of light at 405 nm were measured in the same manner as in Test Example 1. IC50 values of the test compound capable of giving the 50% inhibition to the enzymes were calculated.

Assay [3] deals with α-D-glucosidase (from yeast). The assay can be described thus: α-glucosidase inhibition (Test Example 4). As to conditions: for 50% inhibiory concentration (IC50) Enzyme H: α-D-glucosidase from yeast, substrate p-nitrophenyl-α-D-glucoside; for inhibition of α-D-glucosidase, in words: summary of Table 1. On the procedure: as §1, §2, §3
(§4) This Test Example is a test example for determining the α-glucosidase or β-glucosidase-inhibitory activity of the compound of the formula (I), (V) or (X) according to this invention.
(§5) The evaluation of the β-glucosidase-inhibitory activity was conducted according to a modification of the method described in the “Agricultural and Biological Chemistry”, 26, p.203 (1962).
(§6) Namely, the test was conducted in the same manner as the test for the enzyme-inhibitory activity described in Test Example 1, but with using α-glucosidase originated from yeast or β-glucosidase originated from almond (both enzymes are products of Sigma Company) as the glycosidase enzyme, and with using p-nitro-phenyl-α-D-glucoside or p-nitrophenyl-β-D-glucoside as the substrate. Furthermore, absorbances of light were measured in the same manner as in Test Example 1, and IC50 values of the test compound capable of giving the 50% inhibition to the enzyme were calculated.

In assay [4] the test system is β-D-glucosidase (from almond). The assay can be described thus: β-glucosidase inhibition (Test Example 4). As to conditions: for inhibition of β-D-glucosidase, in words: summary of Table 1; for 50% inhibiory concentration (IC50) Enzyme E: β-D-glucosidase from almond, substrate p-nitrophenyl-β-D-glucoside. On the procedure:
as §1, §2, §3, §4, §5, §6

As to `O=C(N[C@H]1NC[C@H](CO)[C@H](O)[C@@H]1O)C(F)(F)F` [Formula (I), 6-deacetamido-3-decarboxy-3-hydroxymethyl-6-trifluoroacetamido-siastain B], in assay [1], the “inhibition of N-acetylglucosaminidase, in words” value is recorded as “inhibit strongly” and the “50% inhibiory concentration (IC50) Enzyme B” value worked out at 22 µg/mL. The “inhibition of α-D-galactosidase, in words” value in assay [2] (summary of Table 1) was “inhibit strongly”. In addition, the “50% inhibiory concentration (IC50) Enzyme C” value in assay [2] was determined as 0.1 µg/mL. Further, the “50% inhibiory concentration (IC50) Enzyme H” value in assay [3] was above 100 µg/mL. Moreover, in assay [4], the “inhibition of β-D-glucosidase, in words” value is “inhibit strongly” and the “50% inhibiory concentration (IC50) Enzyme E” value is 0.14 µg/mL.

As to `CC(=O)NC1NCC(CO)C(O)C1O` (stereo not drawn) [Formula (V), 3-decarboxy-4-epi-3-hydroxymethyl-siastain B], in assay [1], the “inhibition of N-acetylglucosaminidase, in words” value is reported as “inhibit strongly” and the “50% inhibiory concentration (IC50) Enzyme B” value was 3 µg/mL. Besides, the “50% inhibiory concentration (IC50) Enzyme C” value in assay [2] was above 100 µg/mL. In assay [3], the “inhibition of α-D-glucosidase, in words” value is recorded as “inhibit strongly” and the “50% inhibiory concentration (IC50) Enzyme H” value stood at 7 µg/mL. For the same compound, in assay [4], the “inhibition of β-D-glucosidase, in words” value was “inhibit strongly” and the “50% inhibiory concentration (IC50) Enzyme E” value was determined as 1.4 µg/mL.

As to `O=C(N[C@H]1NC[C@H](CO)[C@@H](O)[C@@H]1O)C(F)(F)F` [Formula (X), 6-deacetamido-3-decarboxy-4-epi-3-hydroxymethyl-6-trifluoroacetamido-siastain B], the “50% inhibiory concentration (IC50) Enzyme B” value in assay [1] was above 100 µg/mL. In assay [2], the “50% inhibiory concentration (IC50) Enzyme C” value was above 100 µg/mL. Moreover, in assay [3], the “inhibition of α-D-glucosidase, in words” value is “inhibit strongly” and the “50% inhibiory concentration (IC50) Enzyme H” value is 0.06 µg/mL. Also, in assay [4], the “inhibition of β-D-glucosidase, in words” value is “inhibit strongly” and the “50% inhibiory concentration (IC50) Enzyme E” value worked out at 0.13 µg/mL.
